Measurements: patent US20220354811A1, “METHODS AND COMPOSITIONS FOR MODULATING MACROPHAGES POLARIZATION” (INSERM (INSTITUT NATIONAL DE LA SANTÉ ET DE LA RECHERCHE …, priority 2019, published 2022)

Legend:
caspases 8, 3 and 7 = assay: Western blot of caspase cleavage in monocytes; assay type: cell-based, human; settings: for cleavage of effector caspases-3 and -7 at their specific differentiation cleavage site: monocytes treated 2 days with CSF-1; for cleavage of the zymogens of caspases 8, 3 and 7 in their active 17-20 kDa fragments: untreated monocytes without CSF-1, 24 h
Procedure: Lysates were centrifuged at 20,000 g (15 min, 4° C.) and supernatants were supplemented with concentrated loading buffer (4× Laemmli buffer). Fifty micrograms of proteins were separated and transferred following standard protocols before analysis with the chemiluminescence detection kit (GE Healthcare, RPN2105).

caspase 3 = target: T1, caspase 3 (Homo sapiens, UniProt P42574); assay: Caspase-3 activity in cellulo in CSF-1-differentiating monocytes (flow cytometry, DEVD); assay type: cell-based; set-up: endogenous in cells; host or cells: primary human peripheral blood monocytes (CD14-selected, healthy donors); settings: identical conditions: Emricasan single dose, Q-VD-OPh 100 μM 2 times
T1 sequence (P42574 29-175 limits assumed): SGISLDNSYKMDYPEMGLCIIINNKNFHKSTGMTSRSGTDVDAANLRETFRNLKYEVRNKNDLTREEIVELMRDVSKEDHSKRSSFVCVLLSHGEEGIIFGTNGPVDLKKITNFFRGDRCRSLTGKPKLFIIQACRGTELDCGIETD
T1 sequence (P42574 176-277 limits assumed): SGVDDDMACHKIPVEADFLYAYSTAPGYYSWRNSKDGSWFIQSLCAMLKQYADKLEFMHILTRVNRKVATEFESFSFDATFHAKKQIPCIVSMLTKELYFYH
From the text: (§1) FIG. 5. […] Caspases activities from 3 different healthy donors was examined by flow cytometry analysis. The results are expressed as percentage of IETD or DEVD positive cells and represent the mean±SD of 3 independent experiments performed in duplicate. n.s. denotes not statistically significant according to a paired student t test. *P<0.05, **P<0.01, ***P<0.001 according to a paired student t test (versus d2). Asterisks indicate cleavage fragments. Each panel is representative of at least 3 independent experiments.
(§2) To analyze the macrophagic differentiation of monocytes, the cells were washed with ice-cold phosphate buffered saline (PBS, Life Technologies, 14190169), incubated at 4° C. for 10 min in PBS/bovine serum albumin (BSA 0.5%, Dutscher, 871002) with anti-CD16, anti-CD71 and anti-CD163 or isotype controls (Miltenyi and BD Biosciences, catalog numbers were 130-113-396, 130-097-628 and 551374). […] Fluorescence was measured with a MACSQuant® Analyzer (Miltenyi, Paris, France). […] Fluorescence was measured with a MACSQuant® Analyzer (Miltenyi, Paris, France). […] Fluorescence, that indicate the internalization of particles, was measured with a MACSQuant® Analyzers (Miltenyi, France). Trypan blue solution was used to quench the fluorescence from particles that were not internalized. […]
(§3) After 2 days, caspase-8 activity was assessed by flow cytometry using Ac-IETD-FITC as substrate (data not shown).

caspase-8 = caspase-8 (Homo sapiens, UniProt Q14790); assay: Caspase-8 activity in cellulo in CSF-1-differentiating monocytes (flow cytometry, IETD); assay type: cell-based; set-up: endogenous in cells; host or cells: primary human peripheral blood monocytes exposed to CSF-1; settings: CSF-1 2 days
From the text: as §1, §2, §3

caspase-8, sequence (Q14790 217-479): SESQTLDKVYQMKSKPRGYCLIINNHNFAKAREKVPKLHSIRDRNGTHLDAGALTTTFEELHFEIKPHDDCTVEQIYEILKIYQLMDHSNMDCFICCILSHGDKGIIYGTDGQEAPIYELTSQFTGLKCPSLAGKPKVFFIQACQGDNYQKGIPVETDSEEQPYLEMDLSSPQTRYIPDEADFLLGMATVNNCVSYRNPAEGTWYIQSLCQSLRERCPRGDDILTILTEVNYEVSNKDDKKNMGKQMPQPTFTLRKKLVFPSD

CC(C)[C@H](NC(=O)c1ccc2ccccc2n1)C(=O)N[C@@H](CC(=O)O)C(=O)COc1c(F)cccc1F [Q-VD-OPh]
cleavage of effector caspases-3 and -7 at their specific differentiation cleavage site (caspases 8, 3 and 7): impaired | cleavage of the zymogens of caspases 8, 3 and 7 in their active 17-20 kDa fragments (caspases 8, 3 and 7): abrogated | effect on caspase-3 activity in cellulo (caspase 3): potent inhibition | effect on caspase-8 activity in cellulo (caspase-8; added twice at 100 μM): strong inhibition

C[C@H](NC(=O)C(=O)Nc1ccccc1C(C)(C)C)C(=O)N[C@@H](CC(=O)O)C(=O)COc1c(F)c(F)cc(F)c1F [Emricasan, (S)-3-((S)-2-(2-((2-(tert-Butyl)phenyl)amino)-2-oxoacetamido)propanamido)-4-oxo-5-(2,3,5,6-tetrafluorophenoxy)pentanoic acid]
cleavage of effector caspases-3 and -7 at their specific differentiation cleavage site (caspases 8, 3 and 7): impaired | cleavage of the zymogens of caspases 8, 3 and 7 in their active 17-20 kDa fragments (caspases 8, 3 and 7): abrogated | effect on caspase-3 activity in cellulo (caspase 3): potent inhibition | single dose that abrogated caspase-8 activity in cellulo (caspase-8; flow cytometry): 2 µM
